One may read the MIC as the smallest concentration in the dilution series that meets the test's criterion for growth inhibition.

Each structure is given as a SMILES string. In brackets after ≈: the same amount, converted by molar mass. Read-outs that look alike come from different tables or passages of the source.

Results on five compounds are retold here after US5346913A, “N-iodopropargyl hydantoin compounds, compositions, preparation, and use as antimicrobial agents” (Rohm and Haas Company, priority 1992, dated 1994).

The test system of experiment [1] is Phytophthora infestans. The experiment in a line: whole plant or invertebrate. In kind it is in vivo. The following applies: for pest or weed control at 200 ppm / pest or weed control at 50 ppm: Phytophthora infestans, in Solanum lycopersicum, 96 h; for pest or weed control at 50 ppm: read-out: % Control TLB, secondary greenhouse test (Table 5), 50 ppm; for percent disease control TLB: advanced greenhouse test (Table 6), 0.25 kg a.i./ha.

For experiment [2], the system named is Puccinia recondita (f. sp. tritici Races PKB and PLD). The experiment is described as follows: whole plant or invertebrate. In kind it is in vivo. To be noted: for pest or weed control at 50 ppm / pest or weed control at 200 ppm: Puccinia recondita, 240 h, read-out: % Control WLR.
The subject of experiment [3] is Pellicularia filamentosa (f. sp. sasiki). The experiment in a line: whole plant or invertebrate. In kind it is in vivo. To be noted: 120 h; read-out: % Control RSB.
The subject of experiment [4] is Pseudomonas aerugenosa. The experiment is described as follows: MIC, broth two-fold serial dilution test, Pseudomonas aerugenosa (Psae). In kind it is cell-based. From the text: (§1) The compounds identified with a prime (') were the non-iodo analogues of the invention compounds, i.e., the compounds of formula III or IV. All data are reported in ppm of active ingredient required to control the respective organism. The indication "No In." means that the compound had no inhibitory activity at 500 ppm which was the maximum tested, and so if the "No In." compound were active, the minimum inhibitory concentration would be above 500 ppm. The comparative tests were not run side-by-side, but were run on different days using the same methods. […] A minimum inhibitory concentration (MIC) value is obtained using a broth, two-fold serial dilution test performed as follows: […] A volume of the stock solution is dispensed into culture media to give an initial starting test concentration of the compound of 500 ppm or 250 ppm. When the test is ready to be done, each vessel in the dilution series, except the first vessel, contains an equal volume of compound free broth. The first vessel contains twice the volume of broth with the starting concentration of test compound. One half of the broth from the first vessel is transferred to the second vessel. After being mixed, one half the resulting volume is removed from the second vessel and transferred to the third vessel. […] Each vessel is then inoculated with a cell suspension of the appropriate test organism. Bacteria are grown in broth and fungi on agar […] is grown in cooling tower media for a time and at a temperature appropriate to the species being tested. At the end of the growth period, the broth is vortexed to disperse the cells. In the case of fungi, the spores are harvested by pipetting water onto the slant and dislodging the spores with a sterile loop. The cell/spore suspension is standardized by controlling incubation time, temperature, and the volume of the diluent. The suspension is then used to inoculate the vessels containing the broth compound. The vessels are then incubated at the appropriate temperature. After the incubation, the vessels are examined for growth/no growth. The MIC is defined as the lowest concentration of compound that results in complete inhibition of growth of the test organism. BACTERIA: Pseudomonas fluorescens (Ps.fl), gram negative; Pseudomonas aerugenosa (Ps.ae), gram negative; Escherichia coli (E.c), gram negative; and Staphylococcus aureus (S.a), gram positive.

Experiment [5] relates to TLB, CDM, WLR, SNW, WPM. To be noted: in vivo.
The test system of experiment [6] is Erysiphe graminis (f. sp. tritici). The experiment is described as follows: whole plant or invertebrate. It is filed as in vivo. To be noted: for pest or weed control at 50 ppm / pest or weed control at 200 ppm: Blumeria graminis, read-out: % Control WPM; for percent disease control WPM: in vivo.
Experiment [7] deals with Staphylococcus aureus. The experiment in a line: MIC, broth two-fold serial dilution test, Staphylococcus aureus (Saur). In kind it is cell-based.
Text: as §1

The subject of experiment [8] is Escherichia coli. The experiment in a line: MIC, broth two-fold serial dilution test, Escherichia coli (Ecol). It is filed as cell-based.
Text: as §1

Experiment [9] deals with Septoria nodorum. To be noted: in vivo.
The test system of experiment [10] is Aspergillus niger. The experiment in a line: MIC, broth two-fold serial dilution test, Aspergillus niger (Anig). In kind it is cell-based. The following applies: TSB.
Text: as §1, with “INDUSTRIAL FUNGI: Aspergillus niger (A.n); Aureobasidium pullulans (A.p)” for “BACTERIA: Pseudomonas fluorescens (Ps.fl), gram negative; Pseudomonas aerugenosa (Ps.ae), gram negative; Escherichia coli (E.c), gram negative; and Staphylococcus aureus (S.a), gram positive.”

The test system of experiment [11] is Piricularia oryzae. The experiment is described as follows: whole plant or invertebrate. It is filed as in vivo. To be noted: Pyricularia oryzae, read-out: % Control RB.
Experiment [12] concerns Pseudoperonospora cubensis. The experiment is described as follows: whole plant or invertebrate. To be noted: for pest or weed control at 200 ppm: Pseudoperonospora cubensis, in Cucumis sativus, 168 h, read-out: % Control CDM; for percent disease control CDM: in vivo. In kind it is in vivo.
Where [13] appears, read: read-out: % Control TLB, greenhouse test (Table 4), 200 ppm.
Where [14] appears, read: read-out: % Control TLB, secondary greenhouse test (Table 5), 200 ppm.

In the case of `CC1C(=O)N(c2ccc(F)cc2)C(=O)N1CC#CI` (stereo not drawn) [Compound 3, 1-(3-iodo-2-propynyl)-3-(4-fiuorophenyl)-5-methylhydantoin], the pest or weed control at 200 ppm in experiment [1] (setting [13]) was determined as 0%; in experiment [1] (setting [14]), 95%; in [2] it was 95%; in [3], 0%; in experiment [6], 40%; in experiment [11], 50%. For the same compound, in experiment [12], the pest or weed control at 200 ppm stood at 50%. The pest or weed control at 50 ppm in [1] was 0%; in experiment [2] it was 0%; in experiment [3], 0%; in [6], 50%; in experiment [11], 50%. Moreover, the “percent disease control TLB” value in experiment [1] is given as 52.0%. In addition, the “percent disease control WLR” value in experiment [2] (in vivo) is given as 75.0%. Moreover, the MIC in experiment [4] (M9G) was over 500 µg/mL; in experiment [4] (TSB), over 500 µg/mL; in experiment [7] (M9G), over 500 µg/mL; in experiment [7] (TSB), over 500 µg/mL; in experiment [8] (M9G), over 500 µg/mL; in experiment [8] (TSB), 250 µg/mL (≈ 672 µM). Further, in experiment [10], 4 µg/mL (≈ 10.7 µM) was the least that counted as inhibitory (MIC). Moreover, the “percent disease control Average” value in [5] is 67.8%. The “percent disease control WPM” value in [6] is listed as 65.0%. For the same compound, in [9], the “percent disease control SNW” value is given as 47.0%. Moreover, in experiment [12], the “percent disease control CDM” value is 100.0%.

In the case of `CC1C(=O)N(c2ccc(Cl)cc2)C(=O)N1CC#CI` (stereo not drawn) [Compound 2, 1-(3-iodo-2-propynyl)-3-(4-chlorophenyl)-5-methylhydantoin], the pest or weed control at 200 ppm was 0% in experiment [1] (setting [13]); 75% in [1] (setting [14]); 85% in experiment [2]; 0% in experiment [3]; 75% in experiment [6]; 75% in [11]. Moreover, the pest or weed control at 200 ppm in [12] was 0%. Moreover, the pest or weed control at 50 ppm in experiment [1] worked out at 50%; in experiment [2] it was 80%; in [3] it was 0%; in experiment [6], 50%; in experiment [11], 50%. In addition, the “percent disease control TLB” value in experiment [1] came to 38.0%. In addition, the “% Control WLR” value in [2] (in vivo) was 90%. In experiment [2] (in vivo), the “percent disease control WLR” value worked out at 83.0%. Also, the MIC is over 500 µg/mL in experiment [4] (M9G); over 500 µg/mL in experiment [4] (TSB); over 500 µg/mL in experiment [7] (M9G); over 500 µg/mL in experiment [7] (TSB); over 500 µg/mL in [8] (M9G); 500 µg/mL (≈ 1290 µM) in experiment [8] (TSB). In experiment [10], the MIC was 2 µg/mL (≈ 5.15 µM). In addition, in experiment [5], the “percent disease control Average” value is given as 72.4%. Also, in experiment [6], the “percent disease control WPM” value was 53.0%. Also, the “percent disease control SNW” value in experiment [9] came to 90.0%. Further, the “percent disease control CDM” value in [12] is reported as 98.0%.

Take `O=C1N(c2cc(Cl)cc(Cl)c2)C(=O)C2(CCCC2)N1CC#CI` [Compound 4, 1-(3-iodo-2-propynyl)-3-(3,5-dichlorophenyl)-5,5-spirocyclopentane-hydantoin]: the pest or weed control at 200 ppm was determined as 95% in experiment [1] (setting [13]); 0% in experiment [1] (setting [14]); 0% in [2]; 50% in experiment [3]; 25% in experiment [6]; 50% in experiment [11]. For the same compound, the pest or weed control at 200 ppm in [12] worked out at 50%. For the same compound, the pest or weed control at 50 ppm in experiment [1] is 0%; in experiment [2], 0%; in experiment [3] it was 50%; in [6], 0%; in [11], 50%. In addition, the “percent disease control TLB” value in [1] was determined as 30.0%. The “percent disease control WLR” value in experiment [2] (in vivo) is 80.0%. For the same compound, the MIC in experiment [4] (M9G), in experiment [4] (TSB), in experiment [7] (M9G), in [7] (TSB), in experiment [8] (M9G) and in [8] (TSB) was over 500 µg/mL throughout. This compound also had an MIC in experiment [10] of 16 µg/mL (≈ 34.5 µM). Besides, the “percent disease control Average” value in experiment [5] was determined as 65.2%. Moreover, the “percent disease control WPM” value in experiment [6] turned out to be 63.0%. In [9], the “percent disease control SNW” value was 53.0%. For the same compound, in experiment [12], the “percent disease control CDM” value came out at 100.0%.

With `CC1(C)C(=O)N(c2cc(Cl)cc(Cl)c2)C(=O)N1CC#CI` [Compound 6, 1-(3-iodo-2-propynyl)-3-(3,5-dichlorophenyl)-5,5-dimethylhydantoin], the “percent disease control TLB” value in experiment [1] worked out at 70.0%. In addition, in experiment [2] (in vivo), the “percent disease control WLR” value was 82.0%. The MIC is over 500 µg/mL in [4] (M9G); over 500 µg/mL in experiment [4] (TSB); 8 µg/mL (≈ 18.3 µM) in experiment [7] (M9G); 2 µg/mL (≈ 4.58 µM) in experiment [7] (TSB); over 500 µg/mL in experiment [8] (M9G); over 500 µg/mL in experiment [8] (TSB). In experiment [10], this compound returned an MIC of 1 µg/mL (≈ 2.29 µM). For the same compound, in experiment [5], the “percent disease control Average” value is given as 77.6%. For the same compound, the “percent disease control WPM” value in experiment [6] was found to be 68.0%. In addition, in experiment [9], the “percent disease control SNW” value is on record as 68.0%. Also, the “percent disease control CDM” value in [12] was determined as 100.0%.

As to `CC(C)(C#CI)N1CC(=O)N(c2cc(Cl)cc(Cl)c2)C1=O` [Compound 13, 1-(1,1-dimethyl-3-iodo-2-propynyl)-3-(3,5-dichlorophenyl)hydantoin], the pest or weed control at 200 ppm in [1] (setting [13]) is 70%; in experiment [1] (setting [14]), 50%; in [2], 90%; in experiment [3] it was 75%; in experiment [6] it was 75%; in experiment [11], 50%. Moreover, the pest or weed control at 200 ppm in [12] worked out at 80%. Besides, the pest or weed control at 50 ppm was determined as 0% in [1]; 50% in [2]; 50% in experiment [3]; 50% in experiment [6]; 50% in experiment [11]. The MIC in [4] (M9G), in experiment [4] (TSB), in experiment [7] (M9G), in experiment [7] (TSB), in experiment [8] (M9G) and in [8] (TSB) was over 500 µg/mL in each case. This compound returned an MIC in experiment [10] of 8 µg/mL (≈ 18.3 µM).
